# Experiments:
# [1] = tested on: RAS transformation of cells; details: in vitro and in vivo (b6); malignant transformation of cells (b7); cited from earlier work
# PAK1 [2] = details: cited from earlier work
# ETK [3] = molecular target: T1, ETK (Mus musculus, UniProt P97504); experiment: Tyrosine phosphorylation of ETK in AG879-treated RAS cells (immunoprecipitation); format: cell-based; design: endogenous in cells; host or cells: RAS cells (v-Ha-RAS transformed NIH 3T3 fibroblasts); details: 1 hour
# T1 sequence (P97504 1-651): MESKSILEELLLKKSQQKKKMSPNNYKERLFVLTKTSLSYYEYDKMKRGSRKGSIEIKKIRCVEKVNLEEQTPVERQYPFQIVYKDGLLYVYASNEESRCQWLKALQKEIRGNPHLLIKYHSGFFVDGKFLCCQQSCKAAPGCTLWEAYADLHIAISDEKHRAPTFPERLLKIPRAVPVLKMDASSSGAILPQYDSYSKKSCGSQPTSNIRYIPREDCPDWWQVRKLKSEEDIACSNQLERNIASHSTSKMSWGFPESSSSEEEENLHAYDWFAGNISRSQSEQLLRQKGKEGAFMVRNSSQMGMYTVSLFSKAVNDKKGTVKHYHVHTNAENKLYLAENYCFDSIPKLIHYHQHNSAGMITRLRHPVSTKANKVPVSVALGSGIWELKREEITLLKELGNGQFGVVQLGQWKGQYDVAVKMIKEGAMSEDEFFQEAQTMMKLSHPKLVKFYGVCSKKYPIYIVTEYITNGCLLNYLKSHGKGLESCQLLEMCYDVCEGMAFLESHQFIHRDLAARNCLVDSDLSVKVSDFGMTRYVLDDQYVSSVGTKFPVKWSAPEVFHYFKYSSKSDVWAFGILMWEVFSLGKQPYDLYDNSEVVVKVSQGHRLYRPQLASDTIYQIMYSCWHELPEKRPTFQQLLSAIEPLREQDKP
# Experimental: (§1) Experiments were designed to determine if AG879 affected the Tyr activity of ETK. To do so, serum starved RAS cells were treated, with varying concentrations of AG879 for 1 hour. Cell lysates were prepared using, as lysis buffer, 20 mM Tris-HCl (pH 7.5), 100 mM NaCl, 10% glycerol, 1% Nonidet P-40, 10 mM NaF, 100 μM NaVO3, 1 mM phenylmethylsulfonyl fluoride, and 100 units/ml of aprotonin. Lysates were treated either with a rabbit, anti-ETK antibody, as an anti-phospo Tyr antibody, to immunoprecipitate the enzyme, and an ETK kinase assay was performed, in accordance with Chen, et. al., Nat. Cell Biol. 3:439-444 (2001); and Bagheri-Yarmand, et. al., supra, both of which are incorporated by reference. Endogenous PAK1, associated with ETK was used as a substrate, in either the absence, or varying concentrations of AG879.
# ErbB2 = ErbB2 (Homo sapiens, UniProt P04626); details: cited from earlier work
# GST-PAK1 = GST-PAK1 (Homo sapiens, UniProt Q13153); experiment: Kinase assay with fusion protein GST-PAK1; format: biochemical; details: even at 10 μM
# Chain of GST-PAK1 (Q13153 whole entry, the tested form may be a part): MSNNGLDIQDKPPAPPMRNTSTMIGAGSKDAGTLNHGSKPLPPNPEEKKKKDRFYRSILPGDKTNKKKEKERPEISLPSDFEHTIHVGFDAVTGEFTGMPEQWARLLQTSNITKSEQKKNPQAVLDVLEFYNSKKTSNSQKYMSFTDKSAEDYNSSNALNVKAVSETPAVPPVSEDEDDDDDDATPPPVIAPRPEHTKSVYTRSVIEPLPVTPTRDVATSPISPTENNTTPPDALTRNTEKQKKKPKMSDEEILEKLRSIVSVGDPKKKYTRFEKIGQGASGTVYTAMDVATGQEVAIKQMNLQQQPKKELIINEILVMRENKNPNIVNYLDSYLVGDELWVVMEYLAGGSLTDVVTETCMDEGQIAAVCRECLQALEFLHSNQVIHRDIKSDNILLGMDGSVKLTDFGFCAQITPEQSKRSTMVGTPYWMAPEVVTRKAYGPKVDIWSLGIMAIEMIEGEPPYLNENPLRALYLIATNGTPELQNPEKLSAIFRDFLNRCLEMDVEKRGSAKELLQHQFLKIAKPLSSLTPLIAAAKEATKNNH
# Experimental: In follow up experiments a fusion protein “GST-PAK1” was prepared, and tested in the same way.
# FAK-PAK1 interaction = FAK-PAK1 interaction in RAS cells; format: cell-based; details: 10 nM
# From the text: (§2) In order to determine this, RAS cells were again serum starved, lysed, and immunoprecipitated using an anti-FAK antibody. The precipitates were then blotted, using either anti-phospo Tyr, anti-ETK, or anti-PAK1 antibodies, separately.
# FLK-1 = details: cited from earlier work
# FAK-ETK interaction = molecular target: T2, FAK-ETK interaction (Mus musculus, UniProt P97504); experiment: FAK association with ETK in RAS cells; format: cell-based
# T2 construct: blotted, using either anti-phospo Tyr, anti-ETK, or anti-PAK1 antibodies; endogenous in cells; host or cells: RAS cells (v-Ha-RAS transformed NIH 3T3 fibroblasts)
# T2 sequence (P97504 1-651): T1 sequence (P97504 1-651)
# From the text: as §2
# ETK-PAK1 association = molecular target: T3, ETK-PAK1 association (Mus musculus, UniProt P97504); experiment: ETK-PAK1 association in AG879-treated RAS cells; format: cell-based; details: 10 nM
# T3 construct: RAS cells were again lysed and immunoprecipitated with an anti-ETK antibody; endogenous in cells; host or cells: RAS cells (v-Ha-RAS transformed NIH 3T3 fibroblasts)
# T3 sequence (P97504 1-651): T1 sequence (P97504 1-651)
# Experimental: as §1
# RAS induced sarcomas = details: nude mouse model; cited from earlier work
# RAS cells = experiment: Anchorage dependent growth, follow up experiments; format: cell-based; details: as much as 1 μM
# From the text: The experiments which follow were designed to address this question.
# TEC = molecular target: T4, TEC (Homo sapiens, UniProt P42680); experiment: In vitro kinase assay, TEC family member TEC; format: biochemical; details: concentration as high as 10 μM
# T4 sequence (P42680 1-631): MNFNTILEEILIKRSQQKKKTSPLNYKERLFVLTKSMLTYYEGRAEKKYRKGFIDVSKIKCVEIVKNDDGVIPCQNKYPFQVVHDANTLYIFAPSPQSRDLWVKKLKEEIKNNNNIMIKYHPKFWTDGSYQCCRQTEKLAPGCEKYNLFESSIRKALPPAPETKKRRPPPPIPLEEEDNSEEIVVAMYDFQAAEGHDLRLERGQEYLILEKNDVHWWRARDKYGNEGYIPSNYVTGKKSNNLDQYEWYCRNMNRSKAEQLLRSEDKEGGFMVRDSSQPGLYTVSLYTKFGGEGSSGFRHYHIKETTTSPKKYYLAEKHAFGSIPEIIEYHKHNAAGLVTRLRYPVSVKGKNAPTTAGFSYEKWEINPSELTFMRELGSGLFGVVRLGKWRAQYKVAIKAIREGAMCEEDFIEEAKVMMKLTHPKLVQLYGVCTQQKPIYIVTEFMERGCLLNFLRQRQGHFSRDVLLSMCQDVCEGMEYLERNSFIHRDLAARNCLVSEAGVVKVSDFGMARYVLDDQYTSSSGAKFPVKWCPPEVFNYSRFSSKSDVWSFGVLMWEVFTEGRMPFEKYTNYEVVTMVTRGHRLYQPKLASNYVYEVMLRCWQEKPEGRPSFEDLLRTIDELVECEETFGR
# ETK [4] = molecular target: T1, ETK; experiment: In vitro kinase assay with ETK immunoprecipitated from RAS cells; format: biochemical; design: RAS cells were again lysed and immunoprecipitated with an anti-ETK antibody; endogenous in cells; host or cells: RAS cells (v-Ha-RAS transformed NIH 3T3 fibroblasts)
# Experimental: These experiments were designed to determined how AG879 inhibited ETK activity, i.e., was the inhibition direct, or indirect? To test this, RAS cells were again lysed and immunoprecipitated with an anti-ETK antibody, as described supra. Following this, the immunoprecipitates were used in an in vitro kinase assay, using no, or varying concentrations, of AG879 (0.001-10 μM), as described supra. Two, independent experiments, were carried out.
# FAK = molecular target: T5, FAK (Mus musculus, UniProt P34152); experiment: Tyr phosphorylation of FAK in RAS cells (anti-FAK immunoprecipitation, blot); format: cell-based
# T5 construct: RAS cells were again serum starved, lysed, and immunoprecipitated using an anti-FAK antibody; endogenous in cells; host or cells: RAS cells (v-Ha-RAS transformed NIH 3T3 fibroblasts)
# T5 sequence (P34152 whole entry): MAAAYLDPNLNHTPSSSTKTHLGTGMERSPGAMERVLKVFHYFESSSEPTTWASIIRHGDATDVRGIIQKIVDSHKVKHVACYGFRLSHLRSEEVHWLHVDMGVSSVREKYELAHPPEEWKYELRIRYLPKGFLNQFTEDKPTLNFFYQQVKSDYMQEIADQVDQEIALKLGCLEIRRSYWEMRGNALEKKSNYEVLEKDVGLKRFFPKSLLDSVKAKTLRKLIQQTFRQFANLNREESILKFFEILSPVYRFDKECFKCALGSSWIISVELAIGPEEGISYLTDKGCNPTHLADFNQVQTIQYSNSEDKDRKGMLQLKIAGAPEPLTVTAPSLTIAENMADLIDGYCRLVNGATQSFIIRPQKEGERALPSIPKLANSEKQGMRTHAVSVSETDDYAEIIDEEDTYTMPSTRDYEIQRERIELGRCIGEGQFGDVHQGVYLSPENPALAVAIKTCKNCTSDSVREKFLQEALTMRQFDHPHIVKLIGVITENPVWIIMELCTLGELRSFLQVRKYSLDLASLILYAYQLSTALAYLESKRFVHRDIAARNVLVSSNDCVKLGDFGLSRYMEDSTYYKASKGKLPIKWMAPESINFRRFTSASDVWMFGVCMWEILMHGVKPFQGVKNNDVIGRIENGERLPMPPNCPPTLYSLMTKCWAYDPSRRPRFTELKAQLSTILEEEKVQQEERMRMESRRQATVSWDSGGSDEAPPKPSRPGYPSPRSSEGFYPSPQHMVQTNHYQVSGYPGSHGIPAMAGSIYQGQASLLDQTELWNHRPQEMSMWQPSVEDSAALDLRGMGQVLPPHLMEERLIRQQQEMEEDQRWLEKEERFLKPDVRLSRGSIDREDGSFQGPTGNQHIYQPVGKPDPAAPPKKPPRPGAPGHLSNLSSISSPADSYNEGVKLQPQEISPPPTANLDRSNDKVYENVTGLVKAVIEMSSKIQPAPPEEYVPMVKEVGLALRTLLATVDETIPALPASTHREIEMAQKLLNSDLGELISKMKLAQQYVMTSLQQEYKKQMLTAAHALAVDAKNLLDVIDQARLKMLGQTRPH
# From the text: as §2
# PAK1 [5] = experiment: Tyr phosphorylation of PAK1 in AG879-treated RAS cells; format: cell-based; details: 10 nM
# Experimental: as §1
# PAK1 [6] = experiment: PAK kinase assay on PAK1 immunoprecipitated from AG879-treated RAS cells; format: cell-based; details: RAS cells serum starved, AG879 0.01-10 μM for 1 hour; all concentrations tested
# Experimental: RAS cells, which are NIH 3T3 fibroblasts transformed with v-Ha-RAS, were serum starved, overnight, and were then incubated with varying concentrations of AG879 (0.01-10 μM), for 1 hour. Following the hour of culture, the cells were lysed in lysis buffer (40 mM HEPES, pH 7.4, 1% Nonidet P-40, 1 mM EDTA, 100 mM NaCl, 25 mM NaF, 100 μM NaVO3, 1 MM phenylmethyl sulfonyl fluoride, and 100 units/ml aprotonin). Lysates were tested, via Bradford assay, to determine protein content, and those containing 1 mg of protein were admixed with an anti-PAK1 antibody to immunoprecipitate proteins.
# Once the proteins were immunoprecipitated, they were analyzed in a PAK kinase assay, as described by Tang, et. al., Mol. Cell Biol 17: 4454-4464 (1997); He, et. al., Cancer J. 7:191-202 (2001), He, et. al., Cancer J 6:243-248 (2000); Obemeier, et. al., EMBO J 17:4328-4339 (1998), all of which are incorporated by reference.
# [7] = tested on: RAS cells (NIH 3T3 fibroblasts transformed with v-Ha-RAS); experiment: Colony formation of RAS cells in 0.35% top agar, 3 weeks; format: cell-based; details: colonies containing more than 100 cells, average of two experiments, read-out: IC50 for large colony formation
# From the text: After three weeks, the colonies were stained, and counted, using standard methods. The control used was non-treated cells, plated into the same type of medium.
# ITK = molecular target: T6, ITK (Homo sapiens, UniProt Q08881); experiment: In vitro kinase assay, TEC family member ITK; format: biochemical; details: concentration as high as 10 μM
# T6 sequence (Q08881 1-620): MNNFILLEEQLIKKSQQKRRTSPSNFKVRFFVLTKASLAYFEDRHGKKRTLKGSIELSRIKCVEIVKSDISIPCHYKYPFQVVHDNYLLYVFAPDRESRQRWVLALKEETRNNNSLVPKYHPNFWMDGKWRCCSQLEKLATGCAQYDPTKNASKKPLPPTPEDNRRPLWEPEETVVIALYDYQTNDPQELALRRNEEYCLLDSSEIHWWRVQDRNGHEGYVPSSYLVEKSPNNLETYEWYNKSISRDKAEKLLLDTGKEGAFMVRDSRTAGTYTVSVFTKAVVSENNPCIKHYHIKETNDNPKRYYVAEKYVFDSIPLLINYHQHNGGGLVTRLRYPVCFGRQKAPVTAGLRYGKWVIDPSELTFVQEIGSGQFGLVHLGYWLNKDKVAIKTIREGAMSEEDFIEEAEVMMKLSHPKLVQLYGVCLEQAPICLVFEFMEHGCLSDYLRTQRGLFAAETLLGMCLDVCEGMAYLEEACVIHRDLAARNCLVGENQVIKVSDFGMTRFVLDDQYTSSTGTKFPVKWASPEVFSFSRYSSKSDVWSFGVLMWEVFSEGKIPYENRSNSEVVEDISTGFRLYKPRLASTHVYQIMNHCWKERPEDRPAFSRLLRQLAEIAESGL
# BTK = BTK (Homo sapiens, UniProt Q06187); experiment: In vitro kinase assay, TEC family member BTK; format: biochemical; details: concentration as high as 10 μM
# Chain of BTK (Q06187 whole entry, species assumed): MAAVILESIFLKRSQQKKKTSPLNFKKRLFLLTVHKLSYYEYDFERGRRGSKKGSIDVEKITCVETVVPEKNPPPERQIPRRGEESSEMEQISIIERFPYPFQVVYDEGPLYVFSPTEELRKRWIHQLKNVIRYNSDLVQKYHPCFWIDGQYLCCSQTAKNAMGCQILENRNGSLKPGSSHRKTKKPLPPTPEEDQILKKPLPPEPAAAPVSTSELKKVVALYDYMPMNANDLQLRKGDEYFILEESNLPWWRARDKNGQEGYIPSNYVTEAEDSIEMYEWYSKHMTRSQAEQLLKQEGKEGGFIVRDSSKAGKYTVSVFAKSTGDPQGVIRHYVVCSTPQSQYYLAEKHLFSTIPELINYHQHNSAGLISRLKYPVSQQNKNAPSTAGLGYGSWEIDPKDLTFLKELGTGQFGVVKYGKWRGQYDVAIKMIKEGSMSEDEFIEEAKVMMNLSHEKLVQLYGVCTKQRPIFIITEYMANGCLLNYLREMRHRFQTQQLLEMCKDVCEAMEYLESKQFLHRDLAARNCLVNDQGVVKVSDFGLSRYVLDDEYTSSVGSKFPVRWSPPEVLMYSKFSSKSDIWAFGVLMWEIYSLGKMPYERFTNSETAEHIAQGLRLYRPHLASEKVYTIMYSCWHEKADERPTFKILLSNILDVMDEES
compound,measurement,setting,value
Cc1ccc(-c2nn(C(C)(C)C)c3ncnc(N)c23)cc1 [PP1],RAS induced transformation,[1],block
same,RAS induced PAK1 activation,PAK1 [2],block
AG879,tyrosine phosphorylation of ETK,ETK [3]; 10 nM,inhibited
same,level of the ETK protein,ETK [3],did not affect
same,ErbB2 inhibition,ErbB2,inhibitor
same,inhibition of kinase properties of GST-PAK1,GST-PAK1,did not inhibit
same,FAK-PAK1 interaction,FAK-PAK1 interaction,inhibit
same,FLK-1 inhibition,FLK-1,inhibitor
same,FAK association with ETK,FAK-ETK interaction; 10 nM,not at the lower concentration
same,FAK association with ETK,FAK-ETK interaction; 100 nM,suppressed
same,ETK-PAK1 association,ETK-PAK1 association,suppress
same,growth of RAS induced sarcomas in vivo,RAS induced sarcomas,suppressed
same,effect on anchorage dependent growth,RAS cells,did not effect
same,inhibitory effect on TEC,TEC,no inhibitory effect
same,Tyr phosphorylation of ETK,"ETK [4]; 10 nM, ETK immunoprecipitate",inhibited
same,Tyr phosphorylation of PAK1 by ETK,"ETK [4]; 10 nM, ETK immunoprecipitate",inhibited
same,IC50,"ETK [4]; AG879 0.001-10 μM, two independent experiments",~5 nM
same,Tyr phosphorylation of FAK,FAK; 10 nM,not at the lower concentration
same,Tyr phosphorylation of FAK,FAK; 100 nM,suppressed
same,Tyr phosphorylation of PAK1,PAK1 [5],reduced
same,PAK1 kinase activity,PAK1 [6],blocked quite strongly
same,IC50,[7],~10 nM
same,inhibitory effect on ITK,ITK,no inhibitory effect
same,inhibitory effect on BTK,BTK,no inhibitory effect
COc1cc(/C=C(\C#N)C(N)=O)cc(CSc2nc3ccccc3s2)c1O [AG825],RAS induced transformation,[1],block
same,RAS induced PAK1 activation,PAK1 [2],block
same,IC50,"PAK1 [2]; read-out: IC50, block of RAS induced activation of PAK1 and malignant transformation",~350 nM
COc1cc2ncnc(Nc3cccc(Cl)c3)c2cc1OC [AG1478],RAS induced transformation,[1],block
same,RAS induced PAK1 activation,PAK1 [2],block

# Reference: patent publication US20030153009A1, “Method for influencing kinase activity with AG879” (priority 2002, published 2003)
